Laboratory results reported in patent US11089783B2, “2-(het)aryl-substituted fused heterocycle derivatives as pesticides” (Bayer Aktiengesellschaft, priority 2017, dated 2021).

Tests used:
Format in all cases: in vivo
Tetranychus urticae = Tetranychus urticae spray test, OP-resistant (TETRUR); conditions: Tetranychus urticae, 144 h, TETRUR, 6 dat, read-out: % efficacy
Description: [table] To produce a suitable active ingredient formulation, 1 part by weight of active ingredient is dissolved with the specified parts by weight of solvent and made up to the desired concentration with water containing an emulsifier concentration of 1000 ppm. To produce further test concentrations, the formulation is diluted with emulsifier-containing water. Discs of bean leaves (Phaseolus vulgaris) infested with all stages of the greenhouse red spider mite (Tetranychus urticae) are sprayed with an active ingredient formulation of the desired concentration. After 6 days, the efficacy in % is determined. 100% means that all the spider mites have been killed; 0% means that no spider mites have been killed.

Aphis gossypii = Aphis gossypii spray test (APHIGO), cotton plants; conditions: 6 dat
Summary of the method: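 Cotton plants (Gossypium hirsutum) heavily infested with cotton aphids were sprayed with the active ingredient formulated in emulsifier-containing water (1000 ppm emulsifier), with ammonium salt or penetrant added at 1000 ppm where required. After the set time, percent kill was determined, where 100% means all aphids dead.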

Phaedon cochleariae [1] = assay: Phaedon cochleariae spray test (PHAECO S), cabbage leaves; conditions: Phaedon cochleariae, 168 h, 7 dat, read-out: % efficacy
Description: [table] To produce an appropriate active ingredient formulation, 1 part by weight of active ingredient is dissolved with the specified parts by weight of solvent and made up with water containing an emulsifier concentration of 1000 ppm until the desired concentration is attained. To produce further test concentrations, the mixture is diluted with emulsifier-containing water. If addition of ammonium salts or/and penetrants is required, these are each added to the preparation solution in a concentration of 1000 ppm. Cabbage leaves (Brassica oleracea) are sprayed with an active ingredient formulation of the desired concentration and populated with larvae of the mustard beetle (Phaedon cochleariae). After the desired time, the kill in % is determined. 100% means that all beetle larvae have been killed; 0% means that no beetle larvae have been killed.

Diabrotica balteata = Diabrotica balteata drench test (DIABBA); conditions: soil, 192 h, 8 dat, read-out: % efficacy
Description: [table] To produce an appropriate active ingredient formulation, 1 part by weight of active ingredient is mixed with the specified amounts of solvent and emulsifier and the concentrate is diluted to the desired concentration with water, it being necessary to take into account the volume of soil into which drenching is effected. It should be ensured that a concentration of 40 ppm of emulsifier in the soil is not exceeded. For production of further test concentrations, the mixture is diluted with water. 5 maize kernels in each case are sown into soil-filled pots (Zea mays) and, the next day, drenched with the active ingredient formulation of the desired concentration. After one day, about 25 L2 larvae of the banded cucumber beetle (Diabrotica balteata) were added. After 8 days, the efficacy in % is determined. 100% means that all 5 plants have germinated and grown; 0% means that no plant has emerged.

Meloidogyne incognita [2] = assay: Meloidogyne incognita drench test (MELGIN D); conditions: soil, 504 h, 21 dat, read-out: % efficacy
Description: [table] To produce an appropriate active ingredient formulation, 1 part by weight of active ingredient is mixed with the specified amounts of solvent and emulsifier and the concentrate is diluted to the desired concentration with water, it being necessary to take into account the volume of soil into which drenching is effected. It should be ensured that a concentration of 20 ppm of emulsifier in the soil is not exceeded. For production of further test concentrations, the mixture is diluted with water. Pots filled with soil (loamy sand) are drenched with the active ingredient solution. An egg/larvae suspension of the southern root-knot nematode (Meloidogyne incognita) is added, and lettuce seeds are scattered over the soil surface and covered with quartz sand. The lettuce seeds germinate and the seedlings develop. The root-knots develop on the roots. After the desired time, the nematicidal effect is determined with reference to the root-knot formation in %. 100% means that no root-knots were found; 0% means that the number of root-knots on the treated plants corresponds to that on the untreated control.

Nezara viridula = Nezara viridula spray test (NEZARA / NEZAVI); conditions: Nezara viridula, 96 h, 4 g/ha, 4 dat, read-out: % efficacy
Summary of the method: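 Barley plants infested with Nezara viridula larvae were sprayed with active ingredient in solvent/emulsifier water (1000 ppm emulsifier; ammonium salt or penetrant at 1000 ppm if added). Efficacy scored as % mortality after the set time (100% = all bugs killed).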

Lucilia cuprina = Lucilia cuprina test; conditions: 48 h, L1 larvae, after 2 days, read-out: efficacy (kill)
Summary of the method: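 About 20 L1 larvae of Lucilia cuprina placed on minced horsemeat containing compound (DMSO stock diluted in water to test concentration). Kill (%) scored after 2 days; 100% = all larvae dead, 0% = none dead.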

Musca domestica = Musca domestica test; conditions: 100 ppm, adult houseflies, after 2 days
Description: Solvent: dimethyl sulfoxide To produce a suitable active ingredient formulation, 10 mg of active ingredient are mixed with 0.5 ml of dimethyl sulfoxide, and the concentrate is diluted with water to the desired concentration. Vessels containing a sponge treated with sugar solution and the active ingredient formulation of the desired concentration are populated with 10 adult houseflies (Musca domestica). After 2 days, the kill in % is determined. 100% means that all of the flies have been killed; 0% means that none of the flies have been killed.

Meloidogyne incognita [3] = assay: Meloidogyne incognita test (MELGIN); conditions: 20 ppm, 14 days (14 dat)
Summary of the method: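 Sand with lettuce seeds, M. incognita egg/larvae suspension and aqueous dilution of compound concentrate. Nematicidal efficacy scored from gall (root-knot) formation after 14 days or the desired time, as % relative to untreated control (100% = no galls; 0% = as control).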

Myzus persicae [4] = assay: Myzus persicae oral test; conditions: 120 h, after 5 days, read-out: efficacy
Summary of the method: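 Compound solution in IPL41 insect medium with sugar was sealed under parafilm, through which a mixed population of green peach aphids fed. Mortality was scored after 5 days as % efficacy, with 100% meaning all aphids killed.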

Myzus persicae [5] = assay: Myzus persicae spray test (MYZUPE), Chinese cabbage leaf discs
Summary of the method: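 Leaf discs of Chinese cabbage carrying all stages of green peach aphid were sprayed with compound formulated in solvent and diluted with water containing emulsifier at 1000 ppm. Percent efficacy (100% = all aphids dead) was scored after 5 days or after the desired time.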

Phaedon cochleariae [6] = assay: Phaedon cochleariae spray test (PHAECO), Chinese cabbage leaf discs
Summary of the method: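 Chinese cabbage (Brassica pekinensis) leaf discs sprayed with compound in water with 1000 ppm emulsifier, then after drying infested with Phaedon cochleariae larvae. Efficacy (% larvae killed) scored after 7 days or the chosen interval.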

Nilaparvata lugens = Nilaparvata lugens spray test (NILALU); conditions: 4 g/ha, 4 dat
Description: [table] To produce an appropriate active ingredient formulation, 1 part by weight of active ingredient is dissolved with the specified parts by weight of solvent and made up with water containing an emulsifier concentration of 1000 ppm until the desired concentration is attained. To produce further test concentrations, the mixture is diluted with emulsifier-containing water. If addition of ammonium salts or/and penetrants is required, these are each added to the preparation solution in a concentration of 1000 ppm. Rice plants (Oryza sativa) are sprayed with an active ingredient formulation of the desired concentration and then populated with larvae of the brown planthopper (Nilaparvata lugens). After the desired time, the efficacy in % is determined. 100% means that all planthoppers have been killed; 0% means that no planthoppers have been killed.

Row | SMILES | Emax at 20 g/ha (Tetranychus urticae; 20 g/ha) | Emax at 100 g/ha (Tetranychus urticae; 100 g/ha) | Emax at 4 ppm (Aphis gossypii; Aphis gossypii, 144 h, 4 ppm, read-out: % efficacy) | Emax at 4 ppm (Phaedon cochleariae [1]; 4 ppm) | Emax at 20 ppm (Phaedon cochleariae [1]; 20 ppm) | Emax at 20 ppm (Diabrotica balteata) | Emax at 1 ppm (Meloidogyne incognita [2]; 1 ppm) | Emax at 2 ppm (Meloidogyne incognita [2]; 2 ppm) | Emax at 4 g/ha (Nezara viridula) | pest or weed control at 100 ppm (Lucilia cuprina) | efficacy (kill) (Musca domestica) | efficacy (nematicidal, gall formation) (Meloidogyne incognita [3]) | pest or weed control at 0.8 ppm (Myzus persicae [4]) | % efficacy (Myzus persicae [5]; MYZUPE, 4 g/ha, 5 dat) | pest or weed control at 100 g/ha (Myzus persicae [5]; Myzus persicae, foliar, 120 h, 100 g/ha, 5 days (5 dat), read-out: efficacy) | efficacy (Phaedon cochleariae [6]; 100 g/ha, 7 days (7 dat)) | % efficacy (Phaedon cochleariae [6]; PHAECO, 20 g/ha, 7 dat) | % efficacy (Aphis gossypii; 0.8 ppm) | % efficacy (Aphis gossypii; 4 ppm) | % efficacy (Nilaparvata lugens)
1 | CCS(=O)(=O)c1ccc(NC(=O)NC)nc1-c1nc2cc(C(F)(F)F)nnc2n1C [reference compound] | 0% | 0% | 25% | 0% | 0% | 0% | 0% | 50% | 0% |  |  |  |  |  |  |  |  |  |  | 
2 | CCS(=O)(=O)c1ccc(C(=O)NC)nc1-c1nc2cc(C(F)(F)C(F)(F)F)nnc2n1C [Example I-01] |  |  |  |  |  |  |  |  |  | 100% | 100% | 90% | 100% | 90% | 90% | 100% | 67% | 70% | 100% | 100%
